Test results reported in ChEMBL document CHEMBL3286214, “Tyrosinase inhibitory activity of a glucosylated hydroxystilbene in mouse melan-a melanocytes” (J Nat Prod, 2014).
Active and inactive are the calls of the source. The rule behind the calls is not given here.

What was measured:
[1] = molecular target: T1, Tyrosinase (Mus musculus) (UniProt P11344); experiment: Inhibition of tyrosinase in mouse Melan-a cells assessed as decrease in L-DOPA Vmax by Lineweaver-Burk plot; format: cell-based
T1 sequence (whole entry): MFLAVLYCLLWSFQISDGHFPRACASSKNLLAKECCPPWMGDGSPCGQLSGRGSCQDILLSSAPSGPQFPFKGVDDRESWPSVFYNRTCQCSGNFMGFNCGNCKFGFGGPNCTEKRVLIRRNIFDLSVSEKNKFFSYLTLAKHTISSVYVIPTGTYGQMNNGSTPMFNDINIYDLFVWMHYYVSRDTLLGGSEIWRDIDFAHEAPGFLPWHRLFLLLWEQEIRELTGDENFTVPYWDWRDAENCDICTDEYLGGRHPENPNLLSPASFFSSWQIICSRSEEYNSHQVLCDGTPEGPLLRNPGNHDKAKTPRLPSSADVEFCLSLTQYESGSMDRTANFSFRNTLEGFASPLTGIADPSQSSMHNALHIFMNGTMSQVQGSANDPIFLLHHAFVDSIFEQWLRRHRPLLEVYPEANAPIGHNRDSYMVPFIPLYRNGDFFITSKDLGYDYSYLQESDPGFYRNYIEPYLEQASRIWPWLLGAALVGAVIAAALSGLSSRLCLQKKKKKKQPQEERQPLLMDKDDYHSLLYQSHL

Tyrosinase [2] = molecular target: T2, Tyrosinase (Mus musculus, UniProt P11344); experiment: Inhibition of tyrosinase in mouse Melan-a cells assessed as decrease in L-DOPA Vmax at 120 uM by Lineweaver-Burk plot; format: cell-based
T2 sequence (P11344 whole entry): T1 sequence (whole entry)

Tyrosinase [3] = molecular target: T2, Tyrosinase; experiment: Inhibition of tyrosinase in mouse Melan-a cells assessed as decrease in L-DOPA Vmax at 240 uM by Lineweaver-Burk plot; format: cell-based
[4] = molecular target: T1, Tyrosinase (Mus musculus); experiment: Inhibition of tyrosinase in mouse Melan-a cells after 3 days by L-DOPA oxidation assay in presence of 20 nM TPA melanogenesis inducer; format: cell-based
[5] = molecular target: T1, Tyrosinase (Mus musculus); experiment: Inhibition of tyrosinase in mouse Melan-a cells after 3 days by L-DOPA oxidation assay in presence of 1 uM forskolin melanogenesis inducer; format: cell-based
[6] = molecular target: T1, Tyrosinase (Mus musculus); experiment: Inhibition of tyrosinase in mouse Melan-a at 60 uM after 3 days by L-DOPA oxidation assay in presence of 1 uM forskolin melanogenesis inducer (reference value: 162%); set-up: scale not given: the % may be the effect or the level left
Melan-a [7] = experiment: Effect on tyrosinase localization in mouse Melan-a cells assessed as endoplasmic reticulum trapping at 60 uM incubated for 3 days by confocal immunofluorescence microscopy; format: functional, cell-based
Melan-a [8] = experiment: Effect on tyrosinase localization in mouse Melan-a cells assessed as lysosome at 60 uM incubated for 3 days by confocal immunofluorescence microscopy; format: functional, cell-based
Melan-a [9] = experiment: Effect on tyrosinase maturation in mouse Melan-a cells assessed as immature Endo H-sensitive form measured in endoplasmic reticulum using forskolin-supplemented medium at 60 to 120 uM by Western blotting analysis; format: functional, cell-based
[10] = Suppression of MITF expression in mouse Melan-a cells using forskolin-supplemented medium incubated for 1 day by Western blotting analysis; format: functional, cell-based
[11] = Suppression of TRP1 expression in mouse Melan-a cells using forskolin-supplemented medium at 60 to 120 uM incubated for 1 day by Western blotting analysis; format: functional, cell-based
Melan-a [12] = experiment: Suppression of tyrosinase/TRP-1 complex formation in mouse Melan-a cells using forskolin-supplemented medium at 120 uM incubated for 3 days by Western blotting analysis; format: functional, cell-based

Row | SMILES | inhibition [1] | Ki (Tyrosinase [2]) [mM] | Ki (Tyrosinase [3]) [mM] | inhibition [4] | inhibition [5] | Activity [6] [%] | Activity (Melan-a [7]) | Activity (Melan-a [8]) | Activity (Melan-a [9]) | inhibition [10] | inhibition [11] | inhibition (Melan-a [12])
1 | OC[C@H]1O[C@@H](Oc2c(O)cc(O)cc2/C=C/c2ccc(O)cc2)[C@H](O)[C@@H](O)[C@@H]1O | Dose-dependent effect | 2.8 | 2.5 | Dose-dependent effect | Dose-dependent effect | 103 | inactive | inactive | inactive | Dose-dependent effect | inactive | Active
2 | Oc1ccc(/C=C/c2cc(O)cc(O)c2)cc1 [RESVERATROL] | – | 2.9 | – | – | – | – | – | – | – | – | – | –
